# Patent publication US6770597B2, “Benzohydrazide derivatives as herbicides and desiccant compositions containing them” (Ishihara Sangyo Kaisha, Ltd., priority 2002, dated 2004)
# What was measured:
# Assay type in all cases: in vivo
# [1] = test system: field corn (Zea mays L., var. Dekalb 535, CORN); assay: Greenhouse herbicide screen, post-emerge application, crop damage rating; conditions: POST emergent, 14 days after application, scale 0-100
# Text: (§1) A standard greenhouse herbicide activity screening system was used to evaluate the herbicidal efficacy and crop safety of these test compounds. Seven broadleaf weed species including redroot pigweed (Amaranthus retrofiexus, AMARE), velvetleaf (Abutilon theophrasti, ABUTH), sicklepod (Cassia obtusifolia, CASOB), ivyleaf morningglory (Ipomoea hederacea, IPOHE), lambsquarters (Chenopodium album, CHEAL), common ragweed (Ambrosia artemisiifolia L., AMBEL), and cocklebur (Xanthium strumarium, XANST) were used as test species. Four grass weed species including green foxtail (Setaria viridis, SETVI), barnyardgrass (Echinochloa crus-galli, ECHCG), johnsongrass (Sorghum halepense, SORHA), and large crabgrass (Digitaria sanguinalis, DIGSA) were also used. In addition, four crop species, field corn (Zea mays L., var. Dekalb 535, CORN), soybean (Glycine max L., var. Pella 86, SOY), upland rice (Oryza sp., var.Cocodrie, RICE) and wheat (Triticum aestivum L.) were included.
# (§2) All plants were grown in 10 cm square plastic pots which were filled with a sandy loam soil mix. For pre-emerge tests, seeds were planted one day prior to application of the test compounds. For post-emerge tests, seeds were planted 8-21 days prior to the test to allow emergence and good foliage development prior to application of the test substances. At the time of the post-emerge application, plants of all species were usually at the 2-3 leaf stage of development.
# (§3) All test compounds were dissolved in acetone and applied to the test units in a volume of 187 l/ha. Test materials were applied at rates ranging from 15 g ai/ha to 1000 g ai/ha using a track sprayer equipped with a TJ8001E even flow flat fan spray nozzle. Plants were arranged on a shelf so that the top of the canopy (post-emerge) or top of the soil surface (pre-emerge) was 40-45 cm below the nozzle. Pressurized air was used to force the test solution through the nozzle as it was mechanically advanced (via electrically driven chain drive) over the top of all test plants/pots. This application simulates a typical commercial field herbicide application.
# (§4) Pre-emergence tests were top watered immediately after treatment to incorporate the test materials, then routinely top-watered for normal growth. Post-emerge test units were always bottom-watered.
# (§5) At 14 days after application of the test materials, phytotoxicity ratings were recorded. A rating scale of 0-100 was used as previously described in Research Methods in Weed Science, 2nd edition, B. Truelove, Ed., Southern Weed Science Society, Auburn University, Auburn, Ala., 1977. Briefly, “0” corresponds to no damage and “100” corresponds to complete death of all plants in the test unit. This scale was used both to determine efficacy against weed species and damage to crop species. Herbicide activity data for various compounds of this invention, which are shown by compound No. in Tables 1-12, are shown in Tables 13 and 14.
# [2] = test system: upland rice (Oryza sp., var.Cocodrie, RICE); assay: as above; conditions: POST emergent, 14 days after application, scale 0-100
# Text: as §1, §2, §3, §4, §5
# [3] = test system: cocklebur (Xanthium strumarium, XANST); assay: Greenhouse herbicide screen, pre-emerge application, phytotoxicity rating; conditions: PRE emergent, 14 days after application, rating scale 0-100
# Text: as §1, §2, §3, §4, §5
# [4] = test system: johnsongrass (Sorghum halepense, SORHA); assay: as above; conditions: PRE emergent, 14 days after application, rating scale 0-100
# Text: as §1, §2, §3, §4, §5
# [5] = test system: large crabgrass (Digitaria sanguinalis, DIGSA); assay: as above; conditions: PRE emergent, 14 days after application, rating scale 0-100
# Text: as §1, §2, §3, §4, §5
# [6] = test system: redroot pigweed (Amaranthus retrofiexus, AMARE); assay: as above; conditions: PRE emergent, 14 days after application, rating scale 0-100
# Text: as §1, §2, §3, §4, §5
# [7] = test system: common ragweed (Ambrosia artemisiifolia L., AMBEL); assay: as above; conditions: PRE emergent, 14 days after application, rating scale 0-100
# Text: as §1, §2, §3, §4, §5
# [8] = test system: barnyardgrass (Echinochloa crus-galli, ECHCG); assay: as above; conditions: PRE emergent, 14 days after application, rating scale 0-100
# Text: as §1, §2, §3, §4, §5
# [9] = test system: lambsquarters (Chenopodium album, CHEAL); assay: as above; conditions: PRE emergent, 14 days after application, rating scale 0-100
# Text: as §1, §2, §3, §4, §5
# [10] = test system: green foxtail (Setaria viridis, SETVI); assay: as above; conditions: PRE emergent, 14 days after application, rating scale 0-100
# Text: as §1, §2, §3, §4, §5
# [11] = test system: velvetleaf (Abutilon theophrasti, ABUTH); assay: as above; conditions: PRE emergent, 14 days after application, rating scale 0-100
# Text: as §1, §2, §3, §4, §5
# [12] = test system: ivyleaf morningglory (Ipomoea hederacea, IPOHE); assay: as above; conditions: PRE emergent, 14 days after application, rating scale 0-100
# Text: as §1, §2, §3, §4, §5
# [13] = test system: sicklepod (Cassia obtusifolia, CASOB); assay: as above; conditions: PRE emergent, 14 days after application, rating scale 0-100
# Text: as §1, §2, §3, §4, §5
# [14] = test system: cocklebur (Xanthium strumarium, XANST); assay: Greenhouse herbicide screen, post-emerge application, phytotoxicity rating; conditions: POST emergent, 14 days after application, scale 0-100
# Text: as §1, §2, §3, §4, §5
# [15] = test system: johnsongrass (Sorghum halepense, SORHA); assay: as above; conditions: POST emergent, 14 days after application, scale 0-100
# Text: as §1, §2, §3, §4, §5
# [16] = test system: large crabgrass (Digitaria sanguinalis, DIGSA); assay: as above; conditions: POST emergent, 14 days after application, scale 0-100
# Text: as §1, §2, §3, §4, §5
# [17] = test system: redroot pigweed (Amaranthus retrofiexus, AMARE); assay: as above; conditions: POST emergent, 14 days after application
# Text: as §1, §2, §3, §4, §5
# [18] = test system: common ragweed (Ambrosia artemisiifolia L., AMBEL); assay: as above; conditions: POST emergent, 14 days after application, scale 0-100
# Text: as §1, §2, §3, §4, §5
# [19] = test system: barnyardgrass (Echinochloa crus-galli, ECHCG); assay: as above; conditions: POST emergent, 14 days after application, scale 0-100
# Text: as §1, §2, §3, §4, §5
# [20] = test system: lambsquarters (Chenopodium album, CHEAL); assay: as above; conditions: POST emergent, 14 days after application, scale 0-100
# Text: as §1, §2, §3, §4, §5
# [21] = test system: green foxtail (Setaria viridis, SETVI); assay: as above; conditions: POST emergent, 14 days after application, scale 0-100
# Text: as §1, §2, §3, §4, §5
# [22] = test system: velvetleaf (Abutilon theophrasti, ABUTH); assay: as above; conditions: POST emergent, 14 days after application, scale 0-100
# Text: as §1, §2, §3, §4, §5
# [23] = test system: ivyleaf morningglory (Ipomoea hederacea, IPOHE); assay: as above; conditions: POST emergent, 14 days after application, scale 0-100
# Text: as §1, §2, §3, §4, §5
# [24] = test system: sicklepod (Cassia obtusifolia, CASOB); assay: as above; conditions: POST emergent, 14 days after application, scale 0-100
# Text: as §1, §2, §3, §4, §5
# [25] = test system: field corn (Zea mays L., var. Dekalb 535, CORN); assay: Greenhouse herbicide screen, pre-emerge application, crop damage rating; conditions: PRE emergent, 14 days after application, rating scale 0-100
# Text: as §1, §2, §3, §4, §5
# [26] = test system: upland rice (Oryza sp., var.Cocodrie, RICE); assay: as above; conditions: PRE emergent, 14 days after application, rating scale 0-100
# Text: as §1, §2, §3, §4, §5
smiles,measurement,setting,value
CN(C)NC(=O)c1cc(-n2c(=O)cc(C(F)(F)F)n(C)c2=O)ccc1Cl [Compound 1-4],crop damage rating CORN,[1]; 63 g ai/ha,65
same,crop damage rating CORN,[1]; 250 g ai/ha,99
same,crop damage rating RICE,[2]; 63 g ai/ha,10
same,crop damage rating RICE,[2]; 250 g ai/ha,65
same,phytotoxicity rating XANST,[3]; 63 g ai/ha,0
same,phytotoxicity rating XANST,[3]; 250 g ai/ha,60
same,phytotoxicity rating SORHA,[4]; 63 g ai/ha,0
same,phytotoxicity rating SORHA,[4]; 250 g ai/ha,35
same,phytotoxicity rating DIGSA,[5]; 63 g ai/ha,0
same,phytotoxicity rating DIGSA,[5]; 250 g ai/ha,60
same,phytotoxicity rating AMARE,[6]; 63 g ai/ha,40
same,phytotoxicity rating AMARE,[6]; 250 g ai/ha,95
same,phytotoxicity rating AMBEL,[7]; 63 g ai/ha,0
same,phytotoxicity rating AMBEL,[7]; 250 g ai/ha,40
same,phytotoxicity rating ECHCG,[8]; 63 g ai/ha,0
same,phytotoxicity rating ECHCG,[8]; 250 g ai/ha,40
same,phytotoxicity rating CHEAL,[9]; 63 g ai/ha,15
same,phytotoxicity rating CHEAL,[9]; 250 g ai/ha,100
same,phytotoxicity rating SETVI,[10]; 63 g ai/ha,0
same,phytotoxicity rating SETVI,[10]; 250 g ai/ha,35
same,phytotoxicity rating ABUTH,[11]; 63 g ai/ha,30
same,phytotoxicity rating ABUTH,[11]; 250 g ai/ha,99
same,phytotoxicity rating IPOHE,[12]; 63 g ai/ha,75
same,phytotoxicity rating IPOHE,[12]; 250 g ai/ha,100
same,phytotoxicity rating CASOB,[13]; 63 g ai/ha,0
same,phytotoxicity rating CASOB,[13]; 250 g ai/ha,90
same,phytotoxicity rating XANST,[14]; 63 g ai/ha,100
same,phytotoxicity rating XANST,[14]; 250 g ai/ha,100
same,phytotoxicity rating SORHA,[15]; 63 g ai/ha,50
same,phytotoxicity rating SORHA,[15]; 250 g ai/ha,80
same,phytotoxicity rating DIGSA,[16]; 63 g ai/ha,35
same,phytotoxicity rating DIGSA,[16]; 250 g ai/ha,55
same,phytotoxicity rating AMARE,"[17]; 63 g ai/ha, scale 0-100 (0 no damage, 100 complete death)",100
same,phytotoxicity rating AMARE,"[17]; 250 g ai/ha, scale 0-100",100
same,phytotoxicity rating AMBEL,[18]; 63 g ai/ha,80
same,phytotoxicity rating AMBEL,[18]; 250 g ai/ha,100
same,phytotoxicity rating ECHCO,[19]; 63 g ai/ha,65
same,phytotoxicity rating ECHCO,[19]; 250 g ai/ha,95
same,phytotoxicity rating CHEAL,[20]; 63 g ai/ha,99
same,phytotoxicity rating CHEAL,[20]; 250 g ai/ha,100
same,phytotoxicity rating SETVI,[21]; 63 g ai/ha,65
same,phytotoxicity rating SETVI,[21]; 250 g ai/ha,75
same,phytotoxicity rating ABUTH,[22]; 63 g ai/ha,100
same,phytotoxicity rating ABUTH,[22]; 250 g ai/ha,100
same,phytotoxicity rating IPOHE,[23]; 63 g ai/ha,100
same,phytotoxicity rating IPOHE,[23]; 250 g ai/ha,100
same,phytotoxicity rating CASOB,[24]; 63 g ai/ha,70
same,phytotoxicity rating CASOB,[24]; 250 g ai/ha,80
same,crop damage rating CORN,[25]; 63 g ai/ha,35
same,crop damage rating CORN,[25]; 250 g ai/ha,75
same,crop damage rating RICE,[26]; 63 g ai/ha,0
same,crop damage rating RICE,[26]; 250 g ai/ha,8
